Test results taken from article PMC10398856 (ACS Omega, 2023).

System: SARS-CoV-2 NIV2020-770 (D614G variant)
Test: not given
Format: cell-based
Conditions: read-out: IC50, antiviral effect on SARS-CoV-2 NIV2020-770 (D614G variant)

| SMILES | IC50 [µM] |
| --- | --- |
| Cc1cccc(CSc2nccc(OCCOc3cc(=O)oc4ccc(F)cc34)n2)c1 [5g, 6-Fluoro-4-(2-((2-((3-methylbenzyl)thio)pyrimidin-4-yl)oxy)ethoxy)-2H-chromen-2-one] | < 25 |
| O=c1cc(OCCCOc2ccnc(SCc3ccc(F)cc3)n2)c2ccccc2o1 [5b, 4-(3-((2-((4-Fluorobenzyl)thio)pyrimidin-4-yl)oxy)propoxy)-2H-chromen-2-one] | < 10 |
| O=c1cc(OCCOc2ccnc(SCc3ccc(F)cc3)n2)c2cc(F)ccc2o1 [5c, 6-Fluoro-4-(2-((2-((4-fluorobenzyl)thio)pyrimidin-4-yl)oxy)ethoxy)-2H-chromen-2-one] | < 2.5 |
| O=c1cc(OCCOc2ccnc(SCc3ccc(Cl)cc3)n2)c2ccccc2o1 [5i, 4-(2-((2-((4-Chlorobenzyl)thio)pyrimidin-4-yl)oxy)ethoxy)-2H-chromen-2-one] | < 10 |
| Cc1cccc(CSc2nccc(OCCCOc3cc(=O)oc4ccccc34)n2)c1 [5f, 4-(3-((2-((3-Methylbenzyl)thio)pyrimidin-4-yl)oxy)propoxy)-2H-chromen-2-one] | < 25 |
| Cc1cccc(CSc2nccc(OCCOc3cc(=O)oc4ccccc34)n2)c1 [5e, 4-(2-((2-((3-Methylbenzyl)thio)pyrimidin-4-yl)oxy)ethoxy)-2H-chromen-2-one] | < 25 |
| O=c1cc(OCCCOc2ccnc(SCc3ccc(F)cc3)n2)c2cc(F)ccc2o1 [5d, 6-Fluoro-4-(3-((2-((4-fluorobenzyl)thio)pyrimidin-4-yl)oxy)propoxy)-2H-chromen-2-one] | < 10 |
| O=c1cc(OCCOc2ccnc(SCc3ccc(F)cc3)n2)c2ccccc2o1 [5a, 4-(2-((2-((4-Fluorobenzyl)thio)pyrimidin-4-yl)oxy)ethoxy)-2H-chromen-2-one] | < 50 |
| Cc1cccc(CSc2nccc(OCCCOc3cc(=O)oc4ccc(F)cc34)n2)c1 [5h, 6-Fluoro-4-(3-((2-((3-methylbenzyl)thio)pyrimidin-4-yl)oxy)propoxy)-2H-chromen-2-one] | < 2.5 |

System: SARS-CoV-2 Delta (B.617.2 variant)
Test: microbe, parasite or virus in culture
Format: cell-based
Conditions: Severe acute respiratory syndrome coronavirus 2, read-out: IC50, antiviral effect on SARS-CoV-2 Delta (B.617.2 variant)

| SMILES | IC50 [µM] |
| --- | --- |
| Cc1cccc(CSc2nccc(OCCOc3cc(=O)oc4ccc(F)cc34)n2)c1 [5g, 6-Fluoro-4-(2-((2-((3-methylbenzyl)thio)pyrimidin-4-yl)oxy)ethoxy)-2H-chromen-2-one] | < 10 |
| O=c1cc(OCCCOc2ccnc(SCc3ccc(F)cc3)n2)c2ccccc2o1 [5b, 4-(3-((2-((4-Fluorobenzyl)thio)pyrimidin-4-yl)oxy)propoxy)-2H-chromen-2-one] | < 2.5 |
| O=c1cc(OCCOc2ccnc(SCc3ccc(F)cc3)n2)c2cc(F)ccc2o1 [5c, 6-Fluoro-4-(2-((2-((4-fluorobenzyl)thio)pyrimidin-4-yl)oxy)ethoxy)-2H-chromen-2-one] | < 10 |
| O=c1cc(OCCOc2ccnc(SCc3ccc(Cl)cc3)n2)c2ccccc2o1 [5i, 4-(2-((2-((4-Chlorobenzyl)thio)pyrimidin-4-yl)oxy)ethoxy)-2H-chromen-2-one] | < 2.5 |
| Cc1cccc(CSc2nccc(OCCCOc3cc(=O)oc4ccccc34)n2)c1 [5f, 4-(3-((2-((3-Methylbenzyl)thio)pyrimidin-4-yl)oxy)propoxy)-2H-chromen-2-one] | < 2.5 |
| Cc1cccc(CSc2nccc(OCCOc3cc(=O)oc4ccccc34)n2)c1 [5e, 4-(2-((2-((3-Methylbenzyl)thio)pyrimidin-4-yl)oxy)ethoxy)-2H-chromen-2-one] | < 10 |
| O=c1cc(OCCCOc2ccnc(SCc3ccc(F)cc3)n2)c2cc(F)ccc2o1 [5d, 6-Fluoro-4-(3-((2-((4-fluorobenzyl)thio)pyrimidin-4-yl)oxy)propoxy)-2H-chromen-2-one] | < 10 |
| O=c1cc(OCCOc2ccnc(SCc3ccc(F)cc3)n2)c2ccccc2o1 [5a, 4-(2-((2-((4-Fluorobenzyl)thio)pyrimidin-4-yl)oxy)ethoxy)-2H-chromen-2-one] | < 25 |
| Cc1cccc(CSc2nccc(OCCCOc3cc(=O)oc4ccc(F)cc34)n2)c1 [5h, 6-Fluoro-4-(3-((2-((3-methylbenzyl)thio)pyrimidin-4-yl)oxy)propoxy)-2H-chromen-2-one] | < 10 |
